Assay: Tetrabenazine solubility across the pH range 2-12 (Comparative Example 1)
Assay type: physicochemical
Experimental: The following example employs immediate-release tablets of tetrabenazine, in contrast to the controlled-release tablets of the present invention, to determine the solubility of tetrabenazine across the pH range 2-12.
The dissolution of tetrabenazine 12.5 mg and 25 mg immediate-release tablets was conducted in 0.1 M hydrochloric acid solution (pH 1.5).
The solubility of tetrabenazine was determined across the pH range 2-12 in water, adjusted with hydrochloric acid/sodium hydroxide as necessary and if feasible complete dissolutions at pH 7.0 and pH 12.
All samples were protected from light throughout the experiment.

solubility (between pH 4 and pH 12): approximately 3.0 mg/100 ml
solubility category (between pH 4 and pH 12): practically insoluble
solubility category (pH 2): slightly soluble
solubility (pH 3): approximately 4.0 mg/100 ml
solubility category (pH 3): practically insoluble
solubility category (pH range of 3-12): practically insoluble
Compound: COc1cc2c(cc1OC)C1CC(=O)C(CC(C)C)CN1CC2 (stereo not drawn) [tetrabenazine, 1,3,4,6,7,11b-hexahydro-9,10-dimethoxy-3-(2-methylpropyl)-2H-benzo(a)quinolizin-2-one]
